Experimental data as given in patent US20230099344A1, “COMPOUNDS AND METHODS FOR THE TARGETED DEGRADATION OF IRAK-4” (Arvinas Operations, Inc., priority 2021, published 2023).

Experiments:
Assay type in all cases: cell-based
[1] = test system: IL8; assay: IL-1β stimulated IL8 inhibition assay in PBMC; settings: human PBMCs, IL-1β stimulation, compound overnight, IL8 by MSD after 24 hrs; for IC50: read-out: IL1β stim IL8 inhibition IC50; for Emax: read-out: IL1β stim IL8 inhibition Ymax
Description: (§1) IL-1β, LPS, or R848 Stimulated IL6 Inhibition and IL-1β Stimulated IL8 Inhibition Assay
(§2) Human PBMC cells were seeded at 2.0×10^6 cells/mL, treated with compound overnight, and dosed with the EC50 concentration of each stimulant (either IL-1B. LPS, or R848) was determined for each donor. After 24 hrs, media was collected and analyzed by MSD for IL6 and/or IL8 levels.

[2] = target: T1, IRAK-4 (Homo sapiens, UniProt Q9NWZ3); assay: IRAK-4 ELISA, OCI-Ly10 degradation; parameters: endogenous in cells; settings: treated overnight; for Dmax: OCI-Ly10, OCI-Ly10 cells; for DC50: OCI-Ly10 cells
T1 sequence (Q9NWZ3 1-460): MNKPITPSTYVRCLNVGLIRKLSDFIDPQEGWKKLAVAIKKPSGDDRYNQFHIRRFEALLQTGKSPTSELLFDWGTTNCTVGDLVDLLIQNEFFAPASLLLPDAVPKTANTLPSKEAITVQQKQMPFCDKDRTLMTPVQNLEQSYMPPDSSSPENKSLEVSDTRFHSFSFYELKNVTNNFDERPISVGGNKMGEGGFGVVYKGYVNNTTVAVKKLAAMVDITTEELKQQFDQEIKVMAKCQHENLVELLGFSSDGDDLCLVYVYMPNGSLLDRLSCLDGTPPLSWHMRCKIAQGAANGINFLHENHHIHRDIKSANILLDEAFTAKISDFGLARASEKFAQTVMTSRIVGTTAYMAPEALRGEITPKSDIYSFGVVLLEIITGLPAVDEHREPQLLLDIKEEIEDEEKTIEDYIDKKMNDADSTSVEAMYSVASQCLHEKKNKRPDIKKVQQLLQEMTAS
Procedure, shortened: (§3)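 Readout: IRAK-4 protein level in cell lysate, sandwich ELISA. Cells: OCI-Ly10 at 1×10^6/ml or PBMC at 2×10^6/ml, compound added same day, overnight incubation.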

[3] = target: T1, IRAK-4; assay: IRAK-4 ELISA, PBMC degradation; parameters: endogenous in cells; host or cells: PBMC; settings: treated overnight
Procedure, shortened: as §3

[4] = test system: IL6; assay: IL-1β stimulated IL6 inhibition assay in PBMC; settings: PBMC, human PBMCs, IL-1β stimulation, compound overnight, IL6 by MSD after 24 hrs; for IC50: Homo sapiens, 24 h, read-out: IL1β stim IL6 inhibition IC50; for Emax: read-out: IL1β stim IL6 inhibition Ymax
Description: as §1, §2

O=C1CCC(N2C(=O)c3ccc(N4CC(CN5CCC(N6Cc7cc(NC(=O)c8cnn9cccnc89)c(OCC8CC8)cc7C6=O)CC5)C4)cc3C2=O)C(=O)N1 (centres unmarked) [Example 86]
IC50 [1]: 10 to 50 nM
Emax [1]: 70 to 80%
Dmax [2]: ≥ 90%
DC50 [2]: < 10 nM
DC50 [3]: 1 to 5 nM
Dmax [3]: ≥ 90%
PBMC DC90 [3]: B (B represents a DC90 value ≥10.0 nM and <25.0 nM)
IC50 [4]: < 10 nM
Emax [4]: ≥ 90%

O=C1CCC(N2C(=O)c3ccc(N4CC(CN5CCC(N6Cc7cc(NC(=O)c8cnn9cccnc89)c(N8CCOCC8)cc7C6=O)CC5)C4)cc3C2=O)C(=O)N1 (centres unmarked) [Example 96]
IC50 [1]: ≥ 100 nM
Emax [1]: < 70%
Dmax [2]: ≥ 90%
DC50 [2]: 10 to 50 nM
DC50 [3]: 1 to 5 nM
Dmax [3]: ≥ 90%
PBMC DC90 [3]: B (B represents a DC90 value ≥10.0 nM and <25.0 nM)
IC50 [4]: 50 to 100 nM
Emax [4]: ≥ 90%

O=C1CCC(N2C(=O)c3ccc(N4CC(N5CCC(N6Cc7cc(NC(=O)c8cnn9cccnc89)c(N8CCC(N9CCC9)CC8)cc7C6=O)CC5)C4)cc3C2=O)C(=O)N1 (centres unmarked) [Example 99]
IC50 [1]: 50 to 100 nM
Emax [1]: 80 to 90%
Dmax [2]: ≥ 90%
DC50 [2]: < 10 nM
DC50 [3]: 5 to 10 nM
Dmax [3]: 80 to 90%
PBMC DC90 [3]: D (D represents a DC90 value ≥50 nM)
IC50 [4]: 10 to 50 nM
Emax [4]: ≥ 90%

O=C1CCC(N2Cc3cc(OCCOCCN4CCC(n5cc6cc(NC(=O)c7cnn8cccnc78)c(OCC7CC7)cc6n5)CC4)ccc3C2=O)C(=O)N1 (centres unmarked) [Example 119]
IC50 [1]: 10 to 50 nM
Emax [1]: 80 to 90%
Dmax [2]: 80 to 90%
DC50 [2]: < 10 nM
DC50 [3]: < 1 nM
Dmax [3]: ≥ 90%
PBMC DC90 [3]: A (A represents a DC90 value <10.0 nM)
IC50 [4]: < 10 nM
Emax [4]: ≥ 90%

O=C1CCC(N2Cc3cc(OCCN4CCC(n5cc6cc(NC(=O)c7cnn8cccnc78)c(OCC7CC7)cc6n5)CC4)ccc3C2=O)C(=O)N1 (centres unmarked) [Example 122]
IC50 [1]: 50 to 100 nM
Emax [1]: 80 to 90%
Dmax [2]: < 70%
DC50 [2]: < 10 nM
DC50 [3]: 1 to 5 nM
Dmax [3]: < 70%
PBMC DC90 [3]: B (B represents a DC90 value ≥10.0 nM and <25.0 nM)
IC50 [4]: 10 to 50 nM
Emax [4]: ≥ 90%

O=C1CCC(N2Cc3cc(CCN4CCC(n5cc6cc(NC(=O)c7cnn8cccnc78)c(OCC7CC7)cc6n5)CC4)ccc3C2=O)C(=O)N1 (centres unmarked) [Example 126]
IC50 [1]: < 10 nM
Emax [1]: < 70%
Dmax [2]: ≥ 90%
DC50 [2]: < 10 nM
DC50 [3]: 1 to 5 nM
Dmax [3]: < 70%
PBMC DC90 [3]: B (B represents a DC90 value ≥10.0 nM and <25.0 nM)
IC50 [4]: < 10 nM
Emax [4]: ≥ 90%

O=C1CCC(N2Cc3cc(N4CC(CN5CCC(n6cc7cc(NC(=O)c8cnn9cccnc89)c(OCC8CC8)cc7n6)CC5)C4)ccc3C2=O)C(=O)N1 (centres unmarked) [Example 134]
IC50 [1]: 10 to 50 nM
Emax [1]: 70 to 80%
Dmax [2]: ≥ 90%
DC50 [2]: < 10 nM
DC50 [3]: < 1 nM
Dmax [3]: ≥ 90%
PBMC DC90 [3]: A (A represents a DC90 value <10.0 nM)
IC50 [4]: < 10 nM
Emax [4]: ≥ 90%

O=C1CCC(N2Cc3cc(N4CC(CN5CCC(n6cc7cc(NC(=O)c8cnn9cccnc89)c(C8CC8)cc7n6)CC5)C4)ccc3C2=O)C(=O)N1 (centres unmarked) [Example 136]
IC50 [1]: 50 to 100 nM
Emax [1]: 70 to 80%
Dmax [2]: 70 to 80%
DC50 [2]: < 10 nM
DC50 [3]: < 1 nM
Dmax [3]: ≥ 90%
PBMC DC90 [3]: A (A represents a DC90 value <10.0 nM)
IC50 [4]: < 10 nM
Emax [4]: ≥ 90%

COc1cc2nn(C3CCN(CC4CCN(c5ccc6c(c5)CN(C5CCC(=O)NC5=O)C6=O)CC4)CC3)cc2cc1NC(=O)c1cnn2cccnc12 (centres unmarked) [Example 141]
IC50 [1]: 10 to 50 nM
Emax [1]: 80 to 90%
Dmax [2]: 80 to 90%
DC50 [2]: < 10 nM
DC50 [3]: 1 to 5 nM
Dmax [3]: 80 to 90%
PBMC DC90 [3]: B (B represents a DC90 value ≥10.0 nM and <25.0 nM)
IC50 [4]: < 10 nM
Emax [4]: ≥ 90%

COc1cc2nn(C3CCN(CC4CN(c5ccc6c(c5)CN(C5CCC(=O)NC5=O)C6=O)C4)CC3)cc2cc1NC(=O)c1cnn2cccnc12 (centres unmarked) [Example 142]
IC50 [1]: 10 to 50 nM
Emax [1]: < 70%
Dmax [2]: 70 to 80%
DC50 [2]: < 10 nM
DC50 [3]: < 1 nM
Dmax [3]: 80 to 90%
PBMC DC90 [3]: A (A represents a DC90 value <10.0 nM)
IC50 [4]: < 10 nM
Emax [4]: ≥ 90%

COc1cc2nn(C3CCN(CCc4ccc5c(c4)CN(C4CCC(=O)NC4=O)C5=O)CC3)cc2cc1NC(=O)c1cnn2cccnc12 (centres unmarked) [Example 143]
IC50 [1]: < 10 nM
Emax [1]: 70 to 80%
Dmax [2]: ≥ 90%
DC50 [2]: < 10 nM
DC50 [3]: 1 to 5 nM
Dmax [3]: ≥ 90%
PBMC DC90 [3]: C (C represents a DC90 value ≥25.0 nM and <50 nM)
IC50 [4]: < 10 nM
Emax [4]: ≥ 90%

O=C1CCC(N2C(=O)c3ccc(N4CC(CN5CCC([C@H](F)Cn6cc7cc(NC(=O)c8cnn9cccnc89)c(OCC8CC8)cc7n6)CC5)C4)cc3C2=O)C(=O)N1 (some centres unmarked) [Example 173]
IC50 [1]: 10 to 50 nM
Emax [1]: < 70%
Dmax [2]: ≥ 90%
DC50 [2]: < 10 nM
DC50 [3]: < 1 nM
Dmax [3]: ≥ 90%
PBMC DC90 [3]: A (A represents a DC90 value <10.0 nM)
IC50 [4]: 10 to 50 nM
Emax [4]: ≥ 90%

O=C1CCC(N2C(=O)c3ccc(N4CCC(CN5CCC([C@H](F)Cn6cc7cc(NC(=O)c8cnn9cccnc89)c(OCC8CC8)cc7n6)CC5)CC4)cc3C2=O)C(=O)N1 (some centres unmarked) [Example 182]
IC50 [1]: < 10 nM
Emax [1]: < 70%
Dmax [2]: ≥ 90%
DC50 [2]: < 10 nM
DC50 [3]: < 1 nM
Dmax [3]: ≥ 90%
PBMC DC90 [3]: A (A represents a DC90 value <10.0 nM)
IC50 [4]: < 10 nM
Emax [4]: 80 to 90%

O=C1CCC(N2C(=O)c3ccc(N4CCC(CN5CC[C@H](n6cc7cc(NC(=O)c8cnn9cccnc89)c(OCC8CC8)cc7n6)[C@@H](F)C5)CC4)cc3C2=O)C(=O)N1 (some centres unmarked) [Example 184]
IC50 [1]: 10 to 50 nM
Emax [1]: < 70%
Dmax [2]: < 70%
DC50 [2]: < 10 nM
DC50 [3]: 1 to 5 nM
Dmax [3]: 80 to 90%
PBMC DC90 [3]: C (C represents a DC90 value ≥25.0 nM and <50 nM)
IC50 [4]: 10 to 50 nM
Emax [4]: 80 to 90%

COc1cc2nn(C3CCN(CC4CN(c5ccc6c(c5)C(=O)N(C5CCC(=O)NC5=O)C6=O)C4)CC3)cc2cc1NC(=O)c1cnn2cccnc12 (centres unmarked) [Example 202]
IC50 [1]: ≥ 100 nM
Dmax [2]: ≥ 90%
DC50 [2]: < 10 nM
DC50 [3]: < 1 nM
Dmax [3]: ≥ 90%
PBMC DC90 [3]: A (A represents a DC90 value <10.0 nM)
IC50 [4]: 10 to 50 nM
Emax [4]: 80 to 90%

COc1cc2nn(C3CCN(CC4(F)CN(c5ccc6c(c5)C(=O)N(C5CCC(=O)NC5=O)C6=O)C4)CC3)cc2cc1NC(=O)c1cnn2cccnc12 (centres unmarked) [Example 207]
IC50 [1]: 50 to 100 nM
Emax [1]: < 70%
Dmax [2]: ≥ 90%
DC50 [2]: < 10 nM
DC50 [3]: 1 to 5 nM
Dmax [3]: ≥ 90%
PBMC DC90 [3]: B (B represents a DC90 value ≥10.0 nM and <25.0 nM)
IC50 [4]: 10 to 50 nM
Emax [4]: ≥ 90%

COc1cc2nn([C@H]3CC[C@H](OC4CN(c5ccc6c(c5)C(=O)N(C5CCC(=O)NC5=O)C6=O)C4)CC3)cc2cc1NC(=O)c1cnn2cccnc12 (some centres unmarked) [Example 212]
IC50 [1]: 50 to 100 nM
Emax [1]: < 70%
Dmax [2]: ≥ 90%
DC50 [2]: < 10 nM
DC50 [3]: < 1 nM
Dmax [3]: ≥ 90%
PBMC DC90 [3]: A (A represents a DC90 value <10.0 nM)
IC50 [4]: 10 to 50 nM
Emax [4]: 80 to 90%

COc1cc2nn(C3CCN(CC4(F)CN(c5ccc6c(c5)CN(C5CCC(=O)NC5=O)C6=O)C4)CC3)cc2cc1NC(=O)c1cnn2cccnc12 (centres unmarked) [Example 274]
IC50 [1]: 50 to 100 nM
Emax [1]: 70 to 80%
Dmax [2]: < 70%
DC50 [2]: < 10 nM
DC50 [3]: < 1 nM
Dmax [3]: 80 to 90%
PBMC DC90 [3]: A (A represents a DC90 value <10.0 nM)
IC50 [4]: 10 to 50 nM
Emax [4]: ≥ 90%

O=C1CCC(N2Cc3cc(N4CCC(F)(CN5CCC(n6cc7cc(NC(=O)c8cnn9cccnc89)c(OCC8CC8)cc7n6)CC5)CC4)ccc3C2=O)C(=O)N1 (centres unmarked) [Example 278]
IC50 [1]: 10 to 50 nM
Emax [1]: ≥ 90%
Dmax [2]: 80 to 90%
DC50 [2]: < 10 nM
DC50 [3]: < 1 nM
Dmax [3]: 80 to 90%
PBMC DC90 [3]: A (A represents a DC90 value <10.0 nM)
IC50 [4]: 10 to 50 nM
Emax [4]: ≥ 90%
